By IC50 is commonly meant the concentration at which inhibition is half-maximal. The low end stands for inhibition by little substance, the high end for a need for much substance.

The test system of experiment [1] is HLA-DR4 restricted mouse T cell hybridoma line (DR4.CII.36.8) with HLA-DRB1*04:01-expressing Boleth cells. In words: HLA-DR4-restricted peptide-specific T cell-based assay (hybridoma assay). As to conditions: 6 h, inhibition of IL-2 production, CII259-273 peptide presented by Boleth cells. The method in brief:
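IC50 values derive from 4-parameter logistic fits of IL-2 AlphaLISA signal over 8-point duplicate titrations. Compound and HLA-DRB1*04:01 Boleth APCs were preincubated 1 h, 37° C., before adding CII259-273-restricted DR4.CII.36.8 hybridoma cells with peptide for 6 h at 37° C., in DMEM/1% FCS.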

The next experiment has as its target HLA-DRB1*0401 (Homo sapiens (Human), UniProt P01903+P01911, A100K/A169T/DEL228-266/F76Y/I96L/K127E/L162R/M171V/N62H/P40V/Q125Y/R42H/S133A/S149N/S66Y/V115G/V209L/W38E). Kind of experiment: HLA-DR4 HTRF assay. The class given is binding. The following applies: inhibition of loading of Alexa Fluor 647-labeled Cit-CII peptide onto HLA-DR4 (CLIP cleaved). A digest of the protocol:
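HLA-DRB1*04:01 construct (α/β fused to human Fc, CLIP pre-cleaved by HRV3C overnight at 4° C) at 3 nM was preincubated 45 min with compound and 1 nM anti-Fc-Tb donor, then 40 nM Alexa647-Cit-CII1236-1249 peptide added. After 90 min at 37° C, the 665/620 nm HTRF ratio gave % inhibition; IC50 by nonlinear regression.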
In general terms: Time-resolved FRET reads energy transfer from a long-lived donor to a nearby acceptor.

Molecules are shown by their SMILES. Where only a bound is given, the exact number is not on record here.

As for `CC(C)c1c(O[C@H](c2ccc(C(N)=O)cc2)c2cccc(C#N)c2)ccc2c1OCCC2=O` (single isomer, unassigned) [Example 107a, (*R)-4-((3-cyanophenyl)((8-isopropyl-4-oxochroman-7-yl)oxy)methyl)benzamide], the IC50 in experiment [1] (Mus musculus, T-cell) turned out to be 10000 nM; at HLA-DRB1*0401 it was 940 nM.

Take `CC(C)c1c(O[C@@H](c2ccc(C(N)=O)cc2)c2cccc(C#N)c2)ccc2c1OCCC2=O` (single isomer, unassigned) [Example 107b, (*S)-4-((3-cyanophenyl)((8-isopropyl-4-oxochroman-7-yl)oxy)methyl)benzamide]: the IC50 was 2300 nM in experiment [1] (Mus musculus, T-cell) and 1100 nM at HLA-DRB1*0401.

On to `CC(C)c1c(O[C@H](c2ccc(C(N)=O)cc2)c2ccc(C(=O)O)cc2)ccc2c1OCCC2=O` (single isomer, unassigned) [Example 108a, (*R)-4-((4-carbamoylphenyl)((8-isopropyl-4-oxochroman-7-yl)oxy)methyl)benzoic acid], for which the IC50 is greater than 15000 nM in experiment [1] (Mus musculus, T-cell) and 860 nM at HLA-DRB1*0401.

Take `CC(C)c1c(O[C@@H](c2ccc(C(N)=O)cc2)c2ccc(C(=O)O)cc2)ccc2c1OCCC2=O` (single isomer, unassigned) [Example 108b, (*S)-4-((4-carbamoylphenyl)((8-isopropyl-4-oxochroman-7-yl)oxy)methyl)benzoic acid]: the IC50 in experiment [1] (Mus musculus, T-cell) turned out to be 2700 nM; on HLA-DRB1*0401, 820 nM.

In the case of `Cc1cc([C@H](Oc2cc3c(cc2F)C(=O)CCO3)c2ccc(C(N)=O)cc2)cc(C)n1` (single isomer, unassigned) [Example 109a, (*R)-4-((2,6-dimethylpyridin-4-yl)((6-fluoro-4-oxochroman-7-yl)oxy)methyl)benzamide], the IC50 in experiment [1] came to 1100 nM; against HLA-DRB1*0401, 210 nM.

As to `Cc1cc([C@@H](Oc2cc3c(cc2F)C(=O)CCO3)c2ccc(C(N)=O)cc2)cc(C)n1` (single isomer, unassigned) [Example 109b, (*S)-4-((2,6-dimethylpyridin-4-yl)((6-fluoro-4-oxochroman-7-yl)oxy)methyl)benzamide], the half-maximal inhibitory concentration (IC50) was 12000 nM in experiment [1] and 230 nM on HLA-DRB1*0401.

On to `Cc1cc([C@H](Oc2ccc3c(c2C#N)OCCC3=O)c2ccc(C(N)=O)cc2)cc(C)n1` (single isomer, unassigned) [Example 110a, (*R)-4-(((8-cyano-4-oxochroman-7-yl)oxy)(2,6-dimethylpyridin-4-yl)methyl)benzamide], for which the IC50 in experiment [1] (Mus musculus, T-cell) was found to be 120 nM; on HLA-DRB1*0401 it was 550 nM.

With `Cc1cc([C@@H](Oc2ccc3c(c2C#N)OCCC3=O)c2ccc(C(N)=O)cc2)cc(C)n1` (single isomer, unassigned) [Example 110b, (*S)-4-(((8-cyano-4-oxochroman-7-yl)oxy)(2,6-dimethylpyridin-4-yl)methyl)benzamide], the half-inhibitory concentration (IC50) in experiment [1] (Mus musculus, T-cell) was determined as 790 nM; at HLA-DRB1*0401, 610 nM.

Regarding `Cc1cc([C@H](Oc2ccc3c(c2C)OCCC3=O)c2ccc(C(N)=O)cc2)cc(C)n1` (single isomer, unassigned) [Example 111a, (*R)-4-((2,6-dimethylpyridin-4-yl)((8-methyl-4-oxochroman-7-yl)oxy)methyl)benzamide], the IC50 in experiment [1] (Mus musculus, T-cell) stood at 600 nM; at HLA-DRB1*0401 it was 490 nM.

`Cc1cc([C@H](Oc2ccc3c(c2C)OC(C)(C)CC3=O)c2ccc(C(N)=O)cc2)cc(C)n1` (single isomer, unassigned) [Example 112a, (*R)-4-((2,6-dimethylpyridin-4-yl)((2,2,8-trimethyl-4-oxochroman-7-yl)oxy)methyl)benzamide]: the IC50 in experiment [1] (Mus musculus, T-cell) is 410 nM; against HLA-DRB1*0401 it was 760 nM.

With `Cc1cc([C@@H](Oc2ccc3c(c2C)OC(C)(C)CC3=O)c2ccc(C(N)=O)cc2)cc(C)n1` (single isomer, unassigned) [Example 112b, (*S)-4-((2,6-dimethylpyridin-4-yl)((2,2,8-trimethyl-4-oxochroman-7-yl)oxy)methyl)benzamide], the IC50 in experiment [1] (Mus musculus, T-cell) came out at 4000 nM; against HLA-DRB1*0401 it was 600 nM.

Values taken from patent US12516038B2, “Inhibitors of antigen presentation by HLA-DR” (Janssen Pharmaceutica NV, priority 2020, dated 2026).
